Entries after “also recorded” stand apart in the source; their conditions may differ.
Biological target: CYP2C19 (Homo sapiens, UniProt P33261)
Test: Reversible inhibition kinetics (Lineweaver-Burk), CYP2C19 in HLMs
Assay type: in vitro ADME
Set-up: 0.20 mg/mL HLMs; from tissue; host or cells: human liver microsomes
Conditions: mephenytoin
Experimental: The components of the incubation system were as follows: 0.20 mg/mL HLMs or 0.20 mg/mL RLMs, 0.1 M Tris-HCl, vortioxetine, and the probe substrates of each enzyme. In the study of Km’s (Michaelis–Menten constant) experiment, midazolam (1, 2, 5, 10, 20, 50 and 100 μM in HLMs and RLMs) corresponded to CYP3A4/3A; bupropion (10, 20, 50, 100, 200, 500, 1,000 and 2000 μM in HLMs; 1, 2, 5, 10, 20, 50, 100 and 200 μM in RLMs) corresponded to CYP2B6/2B; amodiaquine (5, 10, 20, 50, 100 and 200 μM in HLMs; 10, 20, 50, 100, 200, 500 μM in RLMs) corresponded to CYP2C8/CYP2C-1; losartan (1, 2, 5, 10, 20, 50, 100, 200 μM in HLMs; 10, 20, 50, 100, 200, 500 and 1,000 μM in RLMs) corresponded to CYP2C9/CYP2C-2; mephenytoin (20, 50, 100, 200, 500 and 1,000 μM in HLMs; 5, 10, 20, 50, 100, 200, 500 and 1,000 μM in RLMs) corresponded to CYP2C19/CYP2C-3; and dextromethorphan (1, 2, 5, 10, 20, 50 and 100 μM in HLMs and RLMs) corresponded to CYP2D6/CYP2D. […]
All experiments results were detected by UPLC-MS/MS, which equipped with a Waters Acquity UPLC system (Milford, MA, United States) and a Waters Xevo TQ-S triple quadrupole tandem mass spectrometer with an electrospray ionization source (Milford, MA, United States). […]
IC50 values and enzyme kinetic parameters were calculated by Graphpad Prism 6.0 (GraphPad software Inc., CA, United States). […] Data for each experiment were expressed as mean ± SD (n = 3).

Chain of CYP2C19 (P33261 whole entry): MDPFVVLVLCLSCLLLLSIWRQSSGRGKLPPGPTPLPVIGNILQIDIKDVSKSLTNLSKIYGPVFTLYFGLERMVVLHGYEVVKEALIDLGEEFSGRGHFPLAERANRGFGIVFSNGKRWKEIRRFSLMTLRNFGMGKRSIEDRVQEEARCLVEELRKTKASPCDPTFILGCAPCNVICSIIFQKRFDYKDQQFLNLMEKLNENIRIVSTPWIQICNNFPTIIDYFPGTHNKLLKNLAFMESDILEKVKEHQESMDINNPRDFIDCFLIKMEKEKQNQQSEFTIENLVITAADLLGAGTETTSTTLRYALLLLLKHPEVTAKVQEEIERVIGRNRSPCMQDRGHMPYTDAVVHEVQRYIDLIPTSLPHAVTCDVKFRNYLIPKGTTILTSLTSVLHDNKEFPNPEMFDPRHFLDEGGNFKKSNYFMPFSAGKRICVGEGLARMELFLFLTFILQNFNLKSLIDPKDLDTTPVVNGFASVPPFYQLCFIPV

Ki: 2170 nM
SMILES: Cc1ccc(Sc2ccccc2N2CCNCC2)c(C)c1 [vortioxetine]
Inhibition type (Lineweaver-Burk plot): competitively inhibited; also recorded: competitive inhibition
